Measurements as given in PubChem BioAssay (NCI).
Several values for one entry are separate records, joined by “and”; a condition that tells them apart may be missing. Identical values can stand only once.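 Cells were grown in 96-well plates and exposed to each compound for 48 hours at five concentrations; endpoints were interpolated linearly between bracketing concentrations, or set to the highest concentration if not reached. GI50 = concentration required for 50% inhibition of growth. TGI denotes the concentration required for complete inhibition of growth.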

What follows are compounds tested on KM12 colon (assay: NCI tumour cell line growth inhibition, 48 h).

Row | SMILES | TGI | GI50 [µM]
1 | Cc1ccc(OC(=O)N2C/C(=C\c3ccccc3)C(=O)/C(=C/c3ccccc3)C2)cc1 | 45.7 µM | 
2 | CCOc1ccc2cc(-c3nn(CC4CCNCC4)c4ncnc(N)c34)ccc2c1 | 13.7 µM | 1.64
3 | O=C(O)CCCCC1CCSS1 (configuration not stated) | > 100 µM | 
4 | O=c1cccc(Cl)[nH]1 | > 100 µM | 
5 | COc1ccccc1C(=O)N(Cc1ccccc1)c1ccc(Cl)c(C(=O)OC(C)C)c1 | > 81 µM | 
6 | CN1CC[C@H](c2c(O)cc(O)c3c(=O)cc(-c4ccccc4Cl)oc23)[C@H](O)C1 | > 10 µM | 
7 | COc1ccc(C2=Nn3c(nnc3-n3nc(C)cc3C)SC2)cc1 | > 100 µM | 0.057
8 | COc1cc(-c2nn(-c3cccc(NC(=O)CCNc4ccc(N5CCOCC5)cc4)c3)cc2-c2ccncc2)ccc1Cl | 20 µM | 2.44
9 | COc1ccc(C)cc1NC(=S)C#N | > 100 µM | 
10 | COc1cccc(-c2nc3sccn3c2-c2ccnc(NCCCNS(=O)(=O)c3ccccc3)c2)c1 | > 100 µM | 2.97
11 | CCCCCC[C@H]1C(=O)O[C@H](C)[C@H](NC(=O)c2cccc(NC=O)c2OC)C(=O)O[C@@H](C)[C@@H]1OC(=O)CCC (tested in a mixture with another compound) | 31.4 µM | 9.77
12 | CC1OC(OC2C(O)C(O)C(O)C(O)C2O)C(N)CC1N=C(N)C(=O)O (configuration not stated) | > 100 µM | 
13 | C=CC(=O)Nc1cc2c(Nc3ccc(F)c(Cl)c3)ncnc2cc1C#CC(C)(C)N1CCN(C)CC1 | 5.75 µM | 2.36
14 | NCCCN=c1ccc2c3c1c(O)c1c(O)ccc(=O)c1c3[nH]n2CCNCCO | 11.6 µM and 39 µM | 1.88

These compounds were tested on OVCAR-3 ovarian (assay: NCI tumour cell line growth inhibition, 48 h).

Row | SMILES | GI50 [µM] | TGI
15 | CCOC1Oc2ccc(C)cc2C(=O)/C1=C\Nc1ccc(S(N)(=O)=O)cc1 (configuration not stated) | 12.5 | 36.5 µM
16 | Cc1cc(NN=C(c2ccc(O)cc2)c2ccc(O)cc2)c([N+](=O)[O-])cc1[N+](=O)[O-] | 4.14 | 19.4 µM
17 | COc1ccc(-c2c(N)noc2-c2cc(OC)c3c(c2)OCCO3)cc1 | < 0.01 | < 0.0126 µM
18 | Cc1nc2ccccc2c(=O)n1/N=C(\N=Nc1cc(Cl)ccc1Cl)c1ccccc1 |  | > 100 µM
19 | Nc1ccccc1C#Cc1ccccc1C#Cc1cccs1 | 13.1 | 26.4 µM
20 | COc1ccc(-c2cc(/C=C/C(=O)c3ccc(N)cc3)[nH]n2)cc1 | 1.25 | 2.97 µM
21 | O=c1[nH]cnc2n[nH]nc12 |  | 63.8 µM
22 | CCOC(=O)c1c(NC(=O)c2ccc(Cl)cc2)sc2c(CN(C)C)c(O)ccc12 | 16.2 | > 100 µM
23 | OCC(O)C(O)C(O)C(O)c1nnc2c(-c3ccccc3)nc3ccccc3n12 (configuration not stated) | > 100 | > 100 µM
24 | N#Cc1cc(S(=O)(=O)Nc2nc3cc(Cl)ccc3o2)c(SCc2ccccc2)cc1Cl | 13.5 | 26.4 µM
25 | CC1(C)C2CCC13C(=O)C1OC3(C2)C2C(=O)c3c(ccc4c3ccc3ccccc34)C(=O)C12 (configuration not stated) | 40.7 | > 100 µM
26 | C#C[C@]1(O)CC[C@H]2[C@@H]3CC=C4c5nc(N)sc5CC[C@]4(C)[C@H]3CC[C@@]21C | 3.1 | 9.84 µM
27 | CCOC(=O)c1c(CN2CCN(C)CC2)nc2ccc(Cl)cc2c1-c1ccccc1 | 6.5 | 19.6 µM
28 | COc1ccccc1NC(=O)C1=C(C)NC(C)=C(C(=O)Nc2ccccc2OC)C1c1ccco1 |  | 9.02 µM
29 | Cc1ccc(OC(=O)N2C/C(=C\c3ccccc3)C(=O)/C(=C/c3ccccc3)C2)cc1 |  | 37.4 µM
30 | CCOc1ccc2cc(-c3nn(CC4CCNCC4)c4ncnc(N)c34)ccc2c1 | 18.1 | 43.8 µM
31 | O=C(O)CCCCC1CCSS1 (configuration not stated) |  | > 100 µM
32 | O=c1cccc(Cl)[nH]1 |  | > 100 µM
33 | COc1ccccc1C(=O)N(Cc1ccccc1)c1ccc(Cl)c(C(=O)OC(C)C)c1 |  | > 100 µM
34 | CN1CC[C@H](c2c(O)cc(O)c3c(=O)cc(-c4ccccc4Cl)oc23)[C@H](O)C1 | 0.0546 | > 10 µM
35 | COc1ccc(C2=Nn3c(nnc3-n3nc(C)cc3C)SC2)cc1 | 0.0346 | 0.114 µM
36 | COc1cc(-c2nn(-c3cccc(NC(=O)CCNc4ccc(N5CCOCC5)cc4)c3)cc2-c2ccncc2)ccc1Cl | 2.45 | 8.55 µM
37 | COc1ccc(C)cc1NC(=S)C#N |  | > 100 µM
38 | COc1cccc(-c2nc3sccn3c2-c2ccnc(NCCCNS(=O)(=O)c3ccccc3)c2)c1 | 3.3 | > 100 µM
39 | CCCCCC[C@H]1C(=O)O[C@H](C)[C@H](NC(=O)c2cccc(NC=O)c2OC)C(=O)O[C@@H](C)[C@@H]1OC(=O)CCC (tested in a mixture with another compound) | 11.1 | 24.9 µM
40 | CC1OC(OC2C(O)C(O)C(O)C(O)C2O)C(N)CC1N=C(N)C(=O)O (configuration not stated) |  | > 100 µM
41 | C=CC(=O)Nc1cc2c(Nc3ccc(F)c(Cl)c3)ncnc2cc1C#CC(C)(C)N1CCN(C)CC1 | 1.13 | 2.85 µM
42 | NCCCN=c1ccc2c3c1c(O)c1c(O)ccc(=O)c1c3[nH]n2CCNCCO | 4.18 | 17.4 µM and 22.5 µM

Each compound was assayed on SK-MEL-5 melanoma (assay: NCI tumour cell line growth inhibition, 48 h).

Row | SMILES | GI50 [µM] | TGI
43 | CCOC1Oc2ccc(C)cc2C(=O)/C1=C\Nc1ccc(S(N)(=O)=O)cc1 (configuration not stated) | 7.79 | 17.3 µM
44 | Cc1cc(NN=C(c2ccc(O)cc2)c2ccc(O)cc2)c([N+](=O)[O-])cc1[N+](=O)[O-] | 0.308 | 3.74 µM
45 | COc1ccc(-c2c(N)noc2-c2cc(OC)c3c(c2)OCCO3)cc1 | < 0.01 | 0.176 µM
46 | Cc1nc2ccccc2c(=O)n1/N=C(\N=Nc1cc(Cl)ccc1Cl)c1ccccc1 |  | > 100 µM
47 | Nc1ccccc1C#Cc1ccccc1C#Cc1cccs1 | 7.59 | 22.3 µM
48 | COc1ccc(-c2cc(/C=C/C(=O)c3ccc(N)cc3)[nH]n2)cc1 | 2.71 | 9.25 µM
49 | O=c1[nH]cnc2n[nH]nc12 |  | > 100 µM
50 | CCOC(=O)c1c(NC(=O)c2ccc(Cl)cc2)sc2c(CN(C)C)c(O)ccc12 | 10.8 | 35.1 µM
51 | OCC(O)C(O)C(O)C(O)c1nnc2c(-c3ccccc3)nc3ccccc3n12 (configuration not stated) | 70.3 | > 100 µM
52 | N#Cc1cc(S(=O)(=O)Nc2nc3cc(Cl)ccc3o2)c(SCc2ccccc2)cc1Cl | 15.1 | 28.3 µM
53 | CC1(C)C2CCC13C(=O)C1OC3(C2)C2C(=O)c3c(ccc4c3ccc3ccccc34)C(=O)C12 (configuration not stated) | 54.3 | > 100 µM
54 | C#C[C@]1(O)CC[C@H]2[C@@H]3CC=C4c5nc(N)sc5CC[C@]4(C)[C@H]3CC[C@@]21C | 1.91 | 3.63 µM
55 | CCOC(=O)c1c(CN2CCN(C)CC2)nc2ccc(Cl)cc2c1-c1ccccc1 | 1.72 | 3.18 µM
56 | COc1ccccc1NC(=O)C1=C(C)NC(C)=C(C(=O)Nc2ccccc2OC)C1c1ccco1 |  | 15.4 µM
57 | Cc1ccc(OC(=O)N2C/C(=C\c3ccccc3)C(=O)/C(=C/c3ccccc3)C2)cc1 |  | > 57.3 µM
58 | CCOc1ccc2cc(-c3nn(CC4CCNCC4)c4ncnc(N)c34)ccc2c1 | 16.4 | 29.9 µM
59 | O=C(O)CCCCC1CCSS1 (configuration not stated) |  | > 100 µM
60 | O=c1cccc(Cl)[nH]1 |  | > 100 µM
61 | COc1ccccc1C(=O)N(Cc1ccccc1)c1ccc(Cl)c(C(=O)OC(C)C)c1 |  | 26.1 µM
62 | CN1CC[C@H](c2c(O)cc(O)c3c(=O)cc(-c4ccccc4Cl)oc23)[C@H](O)C1 | 0.052 | 0.159 µM
63 | COc1ccc(C2=Nn3c(nnc3-n3nc(C)cc3C)SC2)cc1 | 0.0489 | 4.23 µM
64 | COc1cc(-c2nn(-c3cccc(NC(=O)CCNc4ccc(N5CCOCC5)cc4)c3)cc2-c2ccncc2)ccc1Cl | 1.95 | 4.89 µM
65 | COc1ccc(C)cc1NC(=S)C#N |  | > 100 µM
66 | COc1cccc(-c2nc3sccn3c2-c2ccnc(NCCCNS(=O)(=O)c3ccccc3)c2)c1 | 1.88 | 3.77 µM
67 | CCCCCC[C@H]1C(=O)O[C@H](C)[C@H](NC(=O)c2cccc(NC=O)c2OC)C(=O)O[C@@H](C)[C@@H]1OC(=O)CCC (tested in a mixture with another compound) | 3.94 | 14.5 µM
68 | CC1OC(OC2C(O)C(O)C(O)C(O)C2O)C(N)CC1N=C(N)C(=O)O (configuration not stated) |  | > 100 µM
69 | C=CC(=O)Nc1cc2c(Nc3ccc(F)c(Cl)c3)ncnc2cc1C#CC(C)(C)N1CCN(C)CC1 | 4.69 | 7.42 µM
70 | NCCCN=c1ccc2c3c1c(O)c1c(O)ccc(=O)c1c3[nH]n2CCNCCO | 0.706 | 3.61 µM and 4.11 µM

Each compound was assayed on OVCAR-5 ovarian (assay: NCI tumour cell line growth inhibition, 48 h).

Row | SMILES | GI50 [µM] | TGI [µM]
71 | CCOC1Oc2ccc(C)cc2C(=O)/C1=C\Nc1ccc(S(N)(=O)=O)cc1 (configuration not stated) | 0.0219 | 14.1
